The NIST ThermoML archive (doi:10.1021/acs.jced.8b00008)

Test: xn = mol fraction of the nth substance listed
Settings: for surface tension liquid-gas: Pendant drop shape; for viscosity / speed of sound / mass density: 102 kPa, Liquid; for viscosity: Concentric cylinders viscometry; for speed of sound: Single path-length method; for mass density: Vibrating tube method

CCCCCCCCCCCCCCCC [hexadecane] + CC1CCCCC1
Settings | mass density [kg/m3] | speed of sound [m/s] | surface tension liquid-gas [mN/m] | viscosity [mPa·s]
293 K, x2 = 0.1018 | – | – | 26.8 | –
293 K, x2 = 0.2 | – | – | 26.7 | –
293 K, x2 = 0.3 | – | – | 26.4 | –
293 K, x2 = 0.4004 | – | – | 26.2 | –
293 K, x2 = 0.4999 | – | – | 26 | –
293 K, x2 = 0.6 | – | – | 25.5 | –
293 K, x2 = 0.7 | – | – | 25.2 | –
293 K, x2 = 0.8 | – | – | 24.7 | –
293 K, x2 = 0.9 | – | – | 24.3 | –
293.15 K, x2 = 0.1018 | 773 | 1350.5 | – | 3.14
293.15 K, x2 = 0.2 | 772.68 | 1343.5 | – | 2.83
293.15 K, x2 = 0.3 | 772.21 | 1334.5 | – | 2.54
293.15 K, x2 = 0.4004 | 771.85 | 1325.6 | – | 2.24
293.15 K, x2 = 0.4999 | 771.43 | 1316.2 | – | 1.96
293.15 K, x2 = 0.6 | 770.99 | 1303.5 | – | 1.68
293.15 K, x2 = 0.7 | 770.52 | 1289.9 | – | 1.42
293.15 K, x2 = 0.8 | 770.06 | 1274.4 | – | 1.174
293.15 K, x2 = 0.9 | 769.64 | 1256.8 | – | 0.943
298.15 K, x2 = 0.1018 | 769.51 | 1331.5 | – | 2.81
298.15 K, x2 = 0.2 | 769.17 | 1324.6 | – | 2.54
298.15 K, x2 = 0.3 | 768.68 | 1315.4 | – | 2.29
298.15 K, x2 = 0.4004 | 768.28 | 1306.5 | – | 2.03
298.15 K, x2 = 0.4999 | 767.82 | 1297.4 | – | 1.79
298.15 K, x2 = 0.6 | 767.29 | 1284.3 | – | 1.54
298.15 K, x2 = 0.7 | 766.75 | 1270.5 | – | 1.31
298.15 K, x2 = 0.8 | 766.16 | 1254.1 | – | 1.084
298.15 K, x2 = 0.9 | 765.56 | 1236 | – | 0.892
303.15 K, x2 = 0.1018 | 766.03 | 1312.7 | – | 2.52
303.15 K, x2 = 0.2 | 765.67 | 1306 | – | 2.29
303.15 K, x2 = 0.3 | 765.15 | 1296.5 | – | 2.08
303.15 K, x2 = 0.4004 | 764.7 | 1287.5 | – | 1.85
303.15 K, x2 = 0.4999 | 764.21 | 1278.4 | – | 1.65
303.15 K, x2 = 0.6 | 763.6 | 1265 | – | 1.43
303.15 K, x2 = 0.7 | 762.96 | 1250.9 | – | 1.22
303.15 K, x2 = 0.8 | 762.24 | 1233.9 | – | 1.012
303.15 K, x2 = 0.9 | 761.47 | 1215.2 | – | 0.82
313.15 K, x2 = 0.1018 | 759.08 | 1275.9 | – | 2.06
313.15 K, x2 = 0.2 | 758.66 | 1269.1 | – | 1.89
313.15 K, x2 = 0.3 | 758.08 | 1259.4 | – | 1.72
313.15 K, x2 = 0.4004 | 757.54 | 1250.2 | – | 1.55
313.15 K, x2 = 0.4999 | 756.95 | 1240.7 | – | 1.38
313.15 K, x2 = 0.6 | 756.18 | 1226.9 | – | 1.2
313.15 K, x2 = 0.7 | 755.37 | 1212.1 | – | 1.03
313.15 K, x2 = 0.8 | 754.38 | 1194.1 | – | 0.906
313.15 K, x2 = 0.9 | 753.24 | 1174.1 | – | 0.739
323.15 K, x2 = 0.1018 | 752.12 | 1239.9 | – | 1.72
323.15 K, x2 = 0.2 | 751.64 | 1233 | – | 1.58
323.15 K, x2 = 0.3 | 751 | 1223 | – | 1.45
323.15 K, x2 = 0.4004 | 750.36 | 1213.5 | – | 1.31
323.15 K, x2 = 0.4999 | 749.66 | 1203.7 | – | 1.2
323.15 K, x2 = 0.6 | 748.73 | 1189.3 | – | 1.05
323.15 K, x2 = 0.7 | 747.73 | 1173.8 | – | 0.91
323.15 K, x2 = 0.8 | 746.47 | 1154.9 | – | 0.768
323.15 K, x2 = 0.9 | 744.96 | 1133.7 | – | 0.629
333.15 K, x2 = 0.1018 | 745.15 | 1204.9 | – | 1.46
333.15 K, x2 = 0.2 | 744.61 | 1197.7 | – | 1.35
333.15 K, x2 = 0.3 | 743.89 | 1187.7 | – | 1.24
333.15 K, x2 = 0.4004 | 743.16 | 1177.8 | – | 1.16
333.15 K, x2 = 0.4999 | 742.34 | 1167.2 | – | 1.04
333.15 K, x2 = 0.6 | 741.25 | 1152.3 | – | 0.924
333.15 K, x2 = 0.7 | 740.03 | 1136 | – | 0.801
333.15 K, x2 = 0.8 | 738.5 | 1116.2 | – | 0.68
333.15 K, x2 = 0.9 | 736.61 | 1094.2 | – | 0.558

CCC1CCCCC1 [ethylcyclohexane] + CCCCCCCCCCCC
Settings | mass density [kg/m3] | speed of sound [m/s] | surface tension liquid-gas [mN/m] | viscosity [mPa·s]
293.15 K, x1 = 0.1 | 751.13 | 1296.6 | – | 1.43
293.15 K, x1 = 0.216 | 754.22 | 1295.2 | – | 1.34
293.15 K, x1 = 0.2999 | 756.65 | 1294.3 | – | 1.3
293.15 K, x1 = 0.4 | 759.77 | 1293.4 | – | 1.22
293.15 K, x1 = 0.5 | 763.3 | 1292.4 | – | 1.16
293.15 K, x1 = 0.5999 | 767.13 | 1291.8 | – | 1.13
293.15 K, x1 = 0.7 | 771.4 | 1291.3 | – | 1.07
293.15 K, x1 = 0.8 | 776.25 | 1291.2 | – | 0.998
293.15 K, x1 = 0.9 | 781.76 | 1291.7 | – | 0.932
294 K, x1 = 0.216 | – | – | 25.1 | –
294 K, x1 = 0.2999 | – | – | 25.1 | –
294 K, x1 = 0.4 | – | – | 25.1 | –
294 K, x1 = 0.5 | – | – | 25.1 | –
294 K, x1 = 0.5999 | – | – | 25.2 | –
294 K, x1 = 0.8 | – | – | 25.2 | –
303.15 K, x1 = 0.1 | 743.84 | 1257.8 | – | 1.2
303.15 K, x1 = 0.216 | 746.88 | 1256.6 | – | 1.15
303.15 K, x1 = 0.2999 | 749.28 | 1255.1 | – | 1.1
303.15 K, x1 = 0.4 | 752.35 | 1254 | – | 1.04
303.15 K, x1 = 0.5 | 755.8 | 1253.1 | – | 0.966
303.15 K, x1 = 0.5999 | 759.56 | 1251.7 | – | 0.934
303.15 K, x1 = 0.7 | 763.73 | 1250.7 | – | 0.887
303.15 K, x1 = 0.8 | 768.48 | 1250 | – | 0.832
303.15 K, x1 = 0.9 | 773.85 | 1249.7 | – | 0.782
313.15 K, x1 = 0.1 | 736.53 | 1219.8 | – | 1.02
313.15 K, x1 = 0.216 | 739.51 | 1218.6 | – | 0.973
313.15 K, x1 = 0.2999 | 741.87 | 1216.7 | – | 0.939
313.15 K, x1 = 0.4 | 744.89 | 1215.3 | – | 0.899
313.15 K, x1 = 0.5 | 748.26 | 1214.3 | – | 0.876
313.15 K, x1 = 0.5999 | 751.95 | 1212.4 | – | 0.85
313.15 K, x1 = 0.7 | 756.03 | 1210.9 | – | 0.789
313.15 K, x1 = 0.8 | 760.66 | 1209.6 | – | 0.743
313.15 K, x1 = 0.9 | 765.89 | 1208.6 | – | 0.698
323.15 K, x1 = 0.1 | 729.18 | 1182.5 | – | 0.893
323.15 K, x1 = 0.216 | 732.1 | 1181.1 | – | 0.858
323.15 K, x1 = 0.2999 | 734.42 | 1179 | – | 0.823
323.15 K, x1 = 0.4 | 737.38 | 1177.4 | – | 0.79
323.15 K, x1 = 0.5 | 740.68 | 1176.1 | – | 0.759
323.15 K, x1 = 0.5999 | 744.29 | 1173.8 | – | 0.718
323.15 K, x1 = 0.7 | 748.27 | 1171.9 | – | 0.686
323.15 K, x1 = 0.8 | 752.78 | 1170 | – | 0.646
323.15 K, x1 = 0.9 | 757.88 | 1168.3 | – | 0.614
333.15 K, x1 = 0.1 | 721.79 | 1146.2 | – | 0.769
333.15 K, x1 = 0.216 | 724.65 | 1144.3 | – | 0.757
333.15 K, x1 = 0.2999 | 726.93 | 1142.1 | – | 0.713
333.15 K, x1 = 0.4 | 729.83 | 1140.5 | – | 0.685
333.15 K, x1 = 0.5 | 733.05 | 1138.6 | – | 0.667
333.15 K, x1 = 0.5999 | 736.58 | 1136.2 | – | 0.627
333.15 K, x1 = 0.7 | 740.46 | 1133.9 | – | 0.601
333.15 K, x1 = 0.8 | 744.85 | 1131.3 | – | 0.567
333.15 K, x1 = 0.9 | 749.79 | 1128.9 | – | 0.537
